Laboratory results from PubChem BioAssay (NCI).
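Briefly, cells in 96-well plates were exposed to five compound concentrations for 48 h, and endpoints were estimated by linear interpolation. TGI is the concentration that stops growth completely.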

Legend:
Assay in all cases: DTP human tumour cell line panel, 48 h
[1] = test system: 786-0 renal
[2] = test system: A498 renal
[3] = test system: A549 NSCLC
[4] = test system: ACHN renal
[5] = test system: CAKI-1 renal
[6] = test system: CCRF-CEM leukemia
[7] = test system: COLO 205 colon
[8] = test system: DLD-1 colon
[9] = test system: DMS 114 small cell lung
[10] = test system: DMS 273 small cell lung
[11] = test system: EKVX NSCLC
[12] = test system: HCC-2998 colon
[13] = test system: HCT-116 colon
[14] = test system: HCT-15 colon
[15] = test system: HL-60(TB) leukemia
[16] = test system: HOP-18 NSCLC
[17] = test system: HOP-62 NSCLC
[18] = test system: HOP-92 NSCLC
[19] = test system: HT29 colon
[20] = test system: IGROV1 ovarian
[21] = test system: K-562 leukemia
[22] = test system: KM12 colon
[23] = test system: KM20L2 colon
[24] = test system: LOX IMVI melanoma
[25] = test system: LXFL 529 NSCLC
[26] = test system: M14 melanoma
[27] = test system: M19-MEL melanoma
[28] = test system: MALME-3M melanoma
[29] = test system: MOLT-4 leukemia
[30] = test system: NCI-H226 lung
[31] = test system: NCI-H23 lung
[32] = test system: NCI-H460 lung
[33] = test system: NCI-H522 lung
[34] = test system: OVCAR-3 ovarian
[35] = test system: OVCAR-4 ovarian
[36] = test system: OVCAR-5 ovarian
[37] = test system: OVCAR-8 ovarian
[38] = test system: RXF 393 renal
[39] = test system: SF-268 CNS
[40] = test system: SF-295 CNS
[41] = test system: SF-539 CNS
[42] = test system: SK-MEL-2 melanoma
[43] = test system: SK-MEL-28 melanoma
[44] = test system: SK-MEL-5 melanoma
[45] = test system: SK-OV-3 ovarian
[46] = test system: SN12C renal
[47] = test system: SNB-19 CNS
[48] = test system: SNB-75 CNS
[49] = test system: SNB-78 CNS
[50] = test system: SR leukemia
[51] = test system: SW-620 colon
[52] = test system: TK-10 renal
[53] = test system: U251 CNS
[54] = test system: UACC-257 melanoma
[55] = test system: UACC-62 melanoma
[56] = test system: UO-31 renal
[57] = test system: XF 498 CNS
[58] = test system: RPMI-8226 leukemia

Compound `O=C(/C=C/c1ccc(Br)cc1)c1ccc(NCc2nc3ccccc3[nH]2)cc1` has a TGI [1] of over 56.2 µM, a TGI [2] of over 87.1 µM and a TGI [3] of over 54.7 µM. It also gave a TGI [4] of 81.2 µM, a TGI [5] of over 57.4 µM and a TGI [6] of over 40.1 µM. It also gave a TGI [7] of 13 µM, a TGI [8] of over 67.4 µM and a TGI [9] of over 37.5 µM. It also gave a TGI [10] of over 54.6 µM, a TGI [11] of over 100 µM and a TGI [12] of 88.5 µM. It also gave a TGI [13] of over 49.1 µM, a TGI [14] of 17.3 µM and a TGI [15] of over 22.9 µM. The TGI [16] was over 100 µM, the TGI [17] was over 61.2 µM and the TGI [18] was 28.3 µM. It also gave a TGI [19] of 27.4 µM, a TGI [20] of over 76.3 µM and a TGI [21] of over 37.3 µM. It also gave a TGI [22] of over 100 µM, a TGI [23] of over 100 µM and a TGI [24] of 6.91 µM. It also gave a TGI [25] of over 46.2 µM, a TGI [26] of over 100 µM and a TGI [27] of over 100 µM. For the same compound, the TGI [28] was over 100 µM, the TGI [29] was 39.9 µM and the TGI [30] was 54.3 µM. The TGI [31] was over 42.5 µM, the TGI [32] was over 42.2 µM and the TGI [33] was 19.4 µM. It also gave a TGI [34] of over 100 µM, a TGI [35] of over 62.6 µM and a TGI [36] of over 100 µM. The TGI [37] was over 52.6 µM, the TGI [38] was 24.4 µM and the TGI [39] was 33 µM. It also gave a TGI [40] of over 46.3 µM, a TGI [41] of 24.3 µM and a TGI [42] of over 82.1 µM. It also gave a TGI [43] of over 100 µM, a TGI [44] of over 46.8 µM and a TGI [45] of over 69.3 µM. For the same compound, the TGI [46] was 66.5 µM, the TGI [47] was over 53.5 µM and the TGI [48] was 20.6 µM. It also gave a TGI [49] of 16.6 µM, a TGI [50] of 84.6 µM and a TGI [51] of 21.2 µM. The TGI [52] was over 55.3 µM, the TGI [53] was over 36.8 µM and the TGI [54] was over 63.4 µM. The TGI [55] was over 76.2 µM, the TGI [56] was 31.2 µM and the TGI [57] was 49.3 µM.
`COC(=O)C1=C(C)C(=O)[C@H]2C(C(=O)OC)CCCC[C@@H]12` (stereo partly drawn) gave a TGI [1] of over 100 µM, a TGI [2] of over 100 µM and a TGI [3] of over 100 µM. The TGI [4] was over 100 µM, the TGI [5] was over 100 µM and the TGI [6] was over 100 µM. The TGI [7] was over 100 µM, the TGI [8] was over 100 µM and the TGI [9] was 99 µM. For the same compound, the TGI [10] was over 100 µM, the TGI [11] was over 100 µM and the TGI [12] was over 100 µM. It also gave a TGI [13] of over 100 µM, a TGI [14] of over 100 µM and a TGI [15] of over 100 µM. It also gave a TGI [16] of over 100 µM, a TGI [17] of over 100 µM and a TGI [18] of over 100 µM. It also gave a TGI [19] of over 100 µM, a TGI [20] of over 100 µM and a TGI [21] of over 100 µM. It also gave a TGI [22] of over 100 µM, a TGI [23] of over 100 µM and a TGI [25] of over 100 µM. For the same compound, the TGI [26] was over 100 µM, the TGI [27] was over 100 µM and the TGI [28] was over 100 µM. It also gave a TGI [29] of over 100 µM, a TGI [30] of over 100 µM and a TGI [31] of over 100 µM. It also gave a TGI [32] of over 100 µM, a TGI [33] of over 100 µM and a TGI [35] of over 100 µM. It also gave a TGI [36] of over 100 µM, a TGI [37] of over 100 µM and a TGI [58] of over 100 µM. For the same compound, the TGI [38] was over 100 µM, the TGI [39] was over 100 µM and the TGI [40] was over 100 µM. It also gave a TGI [41] of over 100 µM, a TGI [42] of over 100 µM and a TGI [43] of over 100 µM. It also gave a TGI [44] of over 100 µM, a TGI [45] of over 100 µM and a TGI [46] of over 100 µM. It also gave a TGI [47] of over 100 µM, a TGI [48] of over 100 µM and a TGI [49] of over 100 µM. It also gave a TGI [50] of over 100 µM, a TGI [51] of over 100 µM and a TGI [52] of over 100 µM. For the same compound, the TGI [53] was over 100 µM, the TGI [54] was over 100 µM and the TGI [55] was over 100 µM. For the same compound, the TGI [56] was over 100 µM and the TGI [57] was over 100 µM.
